23 molecules from patent US7560466B2, “Methods of treating or preventing autoimmune diseases with 2,4-pyrimidinediamine compounds” (Rigel Pharmaceuticals, Inc., priority 2003, dated 2009) can be followed below.

Counter-ions that a name gives are not always drawn. Like-named read-outs stand apart in the source and are kept apart here. Some results are limits rather than exact numbers.

The subject of this assay is cultured human mast cells (CHMC), IgE-induced degranulation. The experiment in a line: CHMC low cell density IgE activation: tryptase assay. Conditions: CHMC low cell density. In kind it is cell-based. How it is done: Inhibition of degranulation was measured at both low and high cell density by quantifying the release of the granule specific factors tryptase, histamine and hexosaminidase. Inhibition of release and/or synthesis of lipid mediators was assessed by measuring the release of leukotriene LTC4 and inhibition of release and/or synthesis of cytokines was monitored by quantifying TNF-α, IL-6 and IL-13. Tryptase and hexosaminidase were quantified using fluorogenic substrates as described in their respective examples. […] The protocols of the various assays are provided below.
A second phase is performed to convert the expanded CD34-negative progenitor cells into differentiated mucosal mast cells. These mucosal cultured human mast cells (“CHMC”) are derived from CD34+ cells isolated from umbilical cord blood and treated to form a proliferated population of CD34-negative progenitor cells, as described above. […] Also, the cytokine composition of the medium was modified such that it contained SCF (200 ng/mL) and recombinant human IL-6 (200 ng/mL; Peprotech, Catalog No. 200-06 reconstituted to 100 ug/mL in sterile 10 mM acetic acid) (“CM/SCF/IL-6 medium”).
Pellet CHMC cells (980 rpm, 10 min) and resuspend in pre-warmed MT. Add 65 ul of cells to each 96-well plate. Depending on the degranulation activity for each particular CHMC donor, load 1000-1500 cells/well. Mix four times followed by a 1 hr incubation at 37° C. […] Stimulate cells by adding 25 ul of 6× anti-IgE solution to the appropriate plates. Add 25 ul MT to un-stimulated control wells. Mix twice following addition of the anti-IgE. Incubate at 37° C. for 30 minutes. […] Spin plates at 1000 rpm for 10 min to pellet cells. Transfer 25 ul of supernatant to a 96-well black bottom plate and add 100 ul of freshly diluted tryptase substrate solution to each well. Incubate plates at room temperature for 30 min.
In Table 1, all reported values are IC50s (in μM). […] In Table 1, all reported values are IC50s (in μM).

Setting [1] is: 8pt, read-out: LD Tryptase, CHMC, IgE, 8pt.
Setting [2] is: 3pt, read-out: LD Tryptase, CHMC, IgE, 3pt.

Consider `CC1(C)Oc2ccc(Nc3nc(Nc4ccc5c(cnn5CCCNS(=O)(=O)C(F)(F)F)c4)ncc3F)nc2NC1=O` [Compound 844, N4-(2,2-Dimethyl-3-oxo-4H-5-pyrid[1,4]oxazin-6-yl)-5-fluoro-N2-[1-[3-(N-trifluoromethylsulfonylamino)propyl]indazol-5-yl]-2,4-pyrimidinediamine], for which the IC50 under setting [1] was over 10 µM. On the same count and under the same terms, then `CC(C)(C)C(=O)NCCCn1ncc2cc(Nc3ncc(F)c(Nc4ccc5c(n4)NC(=O)C(C)(C)O5)n3)ccc21` [Compound 852, N4-(2,2-Dimethyl-3-oxo-4H-5-pyrido[1,4]oxazin-6-yl)-5-fluoro-N2-[1-(3-pivalamidopropyl)indazol-5-yl]-2,4-pyrimidinediamine], with under 10 µM. `CC1(C)Oc2ccc(Nc3nc(Nc4ccc5c(cnn5CCCN5C(=O)CCC5=O)c4)ncc3F)cc2NC1=O` [Compound 855, N4-(2,2-Dimethyl-3-oxo-4H-benz[1,4]oxazin-6-yl)-5-fluoro-N2-[1-[3-(N-succinimidopropyl)]indazol-5-yl]-2,4-pyrimidinediamine]: the IC50 reads like this: under setting [2], under 10 µM; under setting [1], under 10 µM. In the case of `C[C@@H]1Oc2ccc(Nc3nc(Nc4ccc5c(cnn5CCCN5C(=O)CCC5=O)c4)ncc3F)cc2NC1=O` [Compound 856, (S)-5-Fluoro-N4-(2-methyl-3-oxo-2H,4H-benz[1,4]oxazin-6-yl)-N2-[1-[3-(N-succinimidopropyl)]indazol-5-yl]-2,4-pyrimidinediamine], the IC50 is, setting by setting: under setting [2], under 10 µM; under setting [1], under 10 µM.

As for `CC1(C)Oc2ccc(Nc3nc(Nc4ccc5c(cnn5CCCN5C(=O)CCC5=O)c4)ncc3F)nc2NC1=O` [Compound 857, N4-(2,2-Dimethyl-3-oxo-4H-5-pyrid[1,4]oxazin-6-yl)-5-fluoro-N2-[1-[3-(N-succinimidopropyl)]indazol-5-yl]-2,4-pyrimidinediamine], the IC50 is, setting by setting: under setting [2], under 10 µM; under setting [1], under 10 µM. On to `CC1(C)Oc2ccc(Nc3nc(Nc4ccc5c(cnn5CCCN5C(=O)CCCC5=O)c4)ncc3F)nc2NC1=O` [Compound 862, N4-(2,2-Dimethyl-3-oxo-4H-5-pyrid[1,4]oxazin-6-yl)-N2-[1-[3-(2,6-dioxopiperidino]propyl)indazol-5-yl]-5-fluoro-2,4-pyrimidinediamine], for which the IC50 was under 10 µM under setting [2] and under 10 µM under setting [1]. Regarding `CCOCCCn1ncc2cc(Nc3ncc(F)c(Nc4ccc5c(n4)NC(=O)C(C)(C)O5)n3)ccc21` [Compound 875, N4-(2,2-Dimethyl-3-oxo-4H-5-pyrid[1,4]oxazin-6-yl)-N2-[1-(3-ethoxypropyl)indazol-5-yl]-5-fluoro-2,4-pyrimidinediamine], the IC50 reads like this: under setting [2], under 10 µM; under setting [1], under 10 µM. For `Cn1c(=O)[nH]c2cc(Nc3ncc(F)c(Nc4ccc5c(n4)NC(=O)C(C)(C)O5)n3)ccc21` [Compound 908, N4-(2,2-Dimethyl-3-oxo-4H-5-pyrid[1,4]oxazin-6-yl)-N2-(2,3-dihydro-1-methyl-2-oxo-benzimidazol-5-yl)-5-fluoro-2,4-pyrimidinediamine], the IC50 under setting [2] is under 10 µM and the IC50 under setting [1] is under 10 µM.

Take `CC1(C)Oc2ccc(Nc3nc(Nc4ccc5oncc5c4)ncc3F)nc2NC1=O` [Compound 928, N2-(1,2-Benzisoxazol-5-yl)-N4-(2,2-dimethyl-3-oxo-4H-5-pyrido[1,4]oxazin-6-yl)-5-fluoro-2,4-pyrimidinediamine]: the IC50 under setting [1] is under 10 µM.

For the molecule `CCn1c(C)nc2cc(Nc3ncc(F)c(Nc4ccc5c(n4)NC(=O)C(C)(C)O5)n3)ccc21` [Compound 936, N4-(2,2-Dimethyl-3-oxo-4H-5-pyrido[1,4]oxazin-6-yl)-N2-(1-ethyl-2-methylbenzimidazol-5-yl)-5-fluoro-2,4-pyrimidinediamine], the IC50 under setting [2] is under 10 µM. For the molecule `CC1(C)Oc2ccc(Nc3nc(Nc4ccc5c(c4)nc(C(F)(F)F)n5CCCO)ncc3F)nc2NC1=O` [Compound 941, N4-(2,2-Dimethyl-3-oxo-4H-5-pyrido[1,4]oxazin-6-yl)-5-fluoro-N2-[1-(3-hydroxypropyl)-2-trifluoromethylbenzimidazol-5-yl]-2,4-pyrimidinediamine], the IC50 by setting is: under setting [2], under 10 µM; under setting [1], under 10 µM. With `C[C@@H]1Oc2ccc(Nc3nc(Nc4ccc5c(c4)nc(N4CCOCC4)n5C)ncc3F)cc2NC1=O` [Compound 945, (S)-5-Fluoro-N2-[1-methyl-2-(4-morpholino)benzimidazol-5-yl]-N4-(2-methyl-3-oxo-2H,4H-benz[1,4]oxazin-6-yl)-2,4-pyrimidinediamine], the IC50 is, setting by setting: under setting [2], under 10 µM; under setting [1], under 10 µM. For `Cn1c(N2CCOCC2)nc2cc(Nc3ncc(F)c(Nc4ccc5c(n4)NC(=O)C(C)(C)O5)n3)ccc21` [Compound 946, N4-(2,2-Dimethyl-3-oxo-4H-5-pyrido[1,4]oxazin-6-yl)-5-fluoro-N2-[1-methyl-2-(4-morpholino)benzimidazol-5-yl]-2,4-pyrimidinediamine], the IC50 under setting [2] is under 10 µM and the IC50 under setting [1] is under 10 µM. With `Cc1nc2cc(Nc3ncc(F)c(Nc4ccc5c(n4)NC(=O)C(C)(C)O5)n3)ccc2n1CCCO` [Compound 951, N4-(2,2-Dimethyl-3-oxo-4H-5-pyrido[1,4]oxazin-6-yl)-5-fluoro-N2-[1-(3-hydroxypropyl)-2-methylbenzimidazol-5-yl]-2,4-pyrimidinediamine], the IC50 is under 10 µM under setting [2] and under 10 µM under setting [1].

`CC(=O)NCCCn1c(C)nc2cc(Nc3ncc(F)c(Nc4ccc5c(n4)NC(=O)C(C)(C)O5)n3)ccc21` [Compound 953, N2-[1-[3-(N-Acetylamino)propyl]-2-methylbenzimidazol-5-yl]-N4-(2,2-Dimethyl-3-oxo-4H-5-pyrido[1,4]oxazin-6-yl)-5-fluoro-2,4-pyrimidinediamine]: the IC50 by setting is: under setting [2], under 10 µM; under setting [1], under 10 µM.

For `Cn1c(CN2CCOCC2)nc2cc(Nc3ncc(F)c(Nc4ccc5c(c4)NC(=O)C(C)(C)O5)n3)ccc21` [Compound 956, N4-(2,2-Dimethyl-3-oxo-4H-benz[1,4]oxazin-6-yl)-5-fluoro-N2-[1-methyl-2-(4-morpholinomethyl)benzimidazol-5-yl]-2,4-pyrimidinediamine], under setting [1], the IC50 was under 10 µM. As to `C[C@@H]1Oc2ccc(Nc3nc(Nc4ccc5c(c4)nc(CN4CCOCC4)n5C)ncc3F)cc2NC1=O` [Compound 957, (S)-5-Fluoro-N2-[1-methyl-2-(4-morpholinomethyl)benzimidazol-5-yl]-N4-(2-methyl-3-oxo-2H,4H-benz[1,4]oxazin-6-yl)--2,4-pyrimidinediamine], the IC50 was under 10 µM under setting [2] and under 10 µM under setting [1]. As for `Cn1c(CN2CCOCC2)nc2cc(Nc3ncc(F)c(Nc4ccc5c(n4)NC(=O)C(C)(C)O5)n3)ccc21` [Compound 958, N4-(2,2-Dimethyl-3-oxo-4H-5-pyrido[1,4]oxazin-6-yl)-5-fluoro-N2-[1-methyl-2-(4-morpholinomethyl)benzimidazol-5-yl]-2,4-pyrimidinediamine], the IC50 under setting [1] is under 10 µM. Regarding `Cc1nc2cc(Nc3ncc(F)c(Nc4ccc5c(n4)NC(=O)C(C)(C)O5)n3)ccc2n1CCCNS(C)(=O)=O` [Compound 964, N4-(2,2-Dimethyl-3-oxo-4H-5-pyrido[1,4]oxazin-6-yl)-5-fluoro-N2-[2-methyl-1-[3-(N-methylsulfonylamino)propyl]benzimidazol-5-yl]-2,4-pyrimidinediamine], the IC50 was under 10 µM under setting [2] and under 10 µM under setting [1]. As for `Cn1c(CS(C)(=O)=O)nc2cc(Nc3ncc(F)c(Nc4ccc5c(n4)NC(=O)C(C)(C)O5)n3)ccc21` [Compound 969, N4-(2,2-Dimethyl-3-oxo-4H-5-pyrido[1,4]oxazin-6-yl)-5-fluoro-N2-{1-methyl-2-[(methylsulfonyl)methyl]benzimidazol-5-yl}-2,4-pyrimidinediamine], the IC50 under setting [2] is under 10 µM and the IC50 under setting [1] is under 10 µM. On to `CCN(CC)Cc1nc2cc(Nc3ncc(F)c(Nc4ccc5c(n4)NC(=O)C(C)(C)O5)n3)ccc2n1C` [Compound 974, N2-[2-(N,N-Diethylaminomethyl)-1-methylbenzimidazol-5-yl]-N4-(2,2-dimethyl-3-oxo-4H-5-pyrido[1,4]oxazin-6-yl)-5-fluoro-2,4-pyrimidinediamine], for which the IC50 by setting is: under setting [2], under 10 µM; under setting [1], under 10 µM. As to `CNC(=O)COc1cccc(Nc2ncc(F)c(Nc3ccc4c(n3)NC(=O)C(C)(C)O4)n2)c1` [Compound 986, N4-(2,2-Dimethyl-3-oxo-4H-5-pyrid[1,4]oxazin-6-yl)-5-fluoro-N2-[3-(N-methylamino)carbonylmethyleneoxyphenyl]-2,4-pyrimidinediamine Hydrogen Chloride Salt], the IC50 under setting [2] is under 10 µM and the IC50 under setting [1] was under 10 µM. With `COc1c(C)cc(Nc2ncc(F)c(Nc3ccc4c(c3)NCC(C)(C)O4)n2)cc1Cl` [Compound 1001, N2-(3-Chloro-4-methoxy-5-methylphenyl)-N4-(3,4-dihydro-2,2-dimethyl-4H-benz[1,4]oxazin-6-yl)-5-fluoro-2,4-pyrimidinediamine], the IC50 under setting [1] is under 10 µM.
